Like-named read-outs stand apart in the source and are kept apart here.
What was measured:
Experiment in all cases: biochemical
Format in all cases: binding
DRB1*0301 = DRB1*0301 (Homo sapiens, UniProt P01903+P01911, A100K/A102G/A103R/A169T/F55Y/I96L/K41T/L162R/M171V/P40S/Q125H/Q178H/Q39Y/R42S/S66N/T106N/T262R/W38E/Y61H)
DRB1*1302 = DRB1*1302 (Homo sapiens, UniProt P01903+P01911, A100E/A169T/K41T/L162R/M171V/P40S/Q125H/Q178H/Q39Y/Q99D/R42S/S66N/T262R/V115G/W38E/Y61H)
DRB1*0701 = DRB1*0701 (Homo sapiens, UniProt P01903+P01911, A100R/A102G/A103Q/D57E/D86V/E43K/F76Y/K127E/L162R/M171V/P40G/Q125H/Q99D/R33Q/R42Y/R54Q/S133A/S66F/T210M/V115G/Y107V/Y59L/Y89S)
DRB1*0901 = DRB1*0901 (Homo sapiens, UniProt P01903+P01911, A100R/A103E/D57H/D86V/F55Y/F60I/F76Y/I96F/K127E/L162R/M171V/P40D/Q125H/Q99R/R33Q/R42F/S133A/S66N/T210M/V115G/W38K/Y107V/Y59G/Y89S)
DRB1*0405 = DRB1*0405 (Homo sapiens, UniProt P01903+P01911, A100R/A169T/D86S/F76Y/I96L/K127E/L162R/M171V/N62H/P40V/Q125Y/R42H/S133A/S149N/S66Y/V115G/V209L/W38E)
DRB1*0404 = DRB1*0404 (Homo sapiens, UniProt P01903+P01911, A100R/A169T/F76Y/I96L/K127E/L162R/M171V/N62H/P40V/Q125Y/R42H/S133A/S149N/S66Y/V209L/W38E)
DRB1*0401 = DRB1*0401 (Homo sapiens, UniProt P01903+P01911, A100K/A169T/F76Y/I96L/K127E/L162R/M171V/N62H/P40V/Q125Y/R42H/S133A/S149N/S66Y/V115G/V209L/W38E)
DRB1*1101 = DRB1*1101 (Homo sapiens, UniProt P01903+P01911, A100R/A169T/A87E/I96F/K41T/L162R/M171V/P40S/Q125H/Q178H/Q39Y/Q99D/R42S/S66Y/T262R/V115G/W38E)
DRB1*1101, sequence (P01903 26-254, other chains not shown): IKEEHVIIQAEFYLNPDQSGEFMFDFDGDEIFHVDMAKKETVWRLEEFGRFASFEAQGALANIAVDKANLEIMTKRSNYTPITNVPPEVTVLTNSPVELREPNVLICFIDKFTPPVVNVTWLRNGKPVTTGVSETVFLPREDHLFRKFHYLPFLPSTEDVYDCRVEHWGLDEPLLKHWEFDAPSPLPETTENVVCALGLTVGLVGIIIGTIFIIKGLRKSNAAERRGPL

DRB3*0101 = DRB3*0101 (Homo sapiens, UniProt P01903+P79483)
DRB5*0101 = DRB5*0101 (Homo sapiens, UniProt P01903+Q30154)
DRB1*0101 = DRB1*0101 (Homo sapiens, UniProt P01903+P01911, A100R/D57E/F55L/F60I/F76Y/I96L/L162R/M171V/P40L/Q125E/R42F/V115G/Y59C)
DRB1*1501 = DRB1*1501 (Homo sapiens, UniProt P01903+P01911)
DRB1*0802 = DRB1*0802 (Homo sapiens, UniProt P01903+P01911, A100R/A103L/A169T/F76Y/H45Y/I96F/K41T/L162R/M171V/P40S/Q125H/Q178H/Q39Y/Q99D/R218S/R42G/S66Y/V115G/W38E)
DRB4*0101 = DRB4*0101 (Homo sapiens, UniProt P01903+P13762, G164S)
[1] = competitive inhibition of radiolabeled standard peptide, '-' distinct from ND, read-out: Binding Affinity (nM) DRB1*1302
[2] = competitive inhibition of radiolabeled standard peptide, '-' distinct from ND, read-out: Binding Affinity (nM) DRB1*0901
[3] = competitive inhibition of radiolabeled standard peptide, DRB1*1302, read-out: Binding Affinity (nM) DRB1*1302
[4] = competitive inhibition of radiolabeled standard peptide, DRB1*0901, read-out: Binding Affinity (nM) DRB1*0901

DRB1*1302, sequence (P01903 26-254 limits assumed, other chains not shown): as the sequence (P01903 26-254, other chains not shown) above
DRB1*0301, sequence (P01903 26-254, other chains not shown): as above

Row | Compound | IC50 (DRB1*0301) | IC50 (DRB1*1302; [1]) | IC50 (DRB1*0701) | IC50 (DRB1*0901; [2]) | IC50 (DRB1*0405) | IC50 (DRB1*0404) | IC50 (DRB1*0401) | IC50 (DRB1*1101) | IC50 (DRB3*0101) | IC50 (DRB5*0101) | IC50 (DRB1*0101) | IC50 (DRB1*1501) | IC50 (DRB1*0802) | IC50 (DRB4*0101) | IC50 (DRB1*1302) | IC50 (DRB1*0901) | IC50 (DRB1*1302; [3]) | IC50 (DRB1*0901; [4])
1 | CC[C@H](C)[C@H](NC(=O)[C@H](CCCCN)NC(=O)[C@H](C)NC(=O)[C@H](CCCCN)NC(=O)CNC(=O)[C@H](Cc1c[nH]c2ccccc12)NC(=O)[C@@H](N)[C@@H](C)O)C(=O)N[C@H](C(=O)N[C@H](C(=O)N[C@@H](C)C(=O)N[C@@H](CCC(=O)O)C(=O)N[C@H](C(=O)N[C@@H](CCC(N)=O)C(=O)N[C@@H](CC(N)=O)C(=O)N[C@@H](CO)C(=O)O)[C@@H](C)O)[C@@H](C)O)C(C)C [NS1 117-131] | 4160 nM | 1240 nM | 6690 nM | 2630 nM | 285 nM | 695 nM | 28 nM | 18200 nM | 534 nM | 3930 nM | 1090 nM | 3750 nM | – | – | – | – | – | –
2 | CC(C)C[C@H](NC(=O)[C@@H](NC(=O)CNC(=O)[C@H](CC(N)=O)NC(=O)[C@H](CO)NC(=O)[C@H](Cc1c[nH]c2ccccc12)NC(=O)[C@H](CC(C)C)NC(=O)[C@@H](NC(=O)[C@H](Cc1c[nH]cn1)NC(=O)[C@H](CO)NC(=O)[C@H](CCCCN)NC(=O)[C@@H]1CCCN1C(=O)[C@@H](N)Cc1c[nH]c2ccccc12)[C@@H](C)O)C(C)C)C(=O)N[C@@H](CCC(=O)O)C(=O)N[C@@H](CO)C(=O)O [NS1 225-239] | 520 nM | 59 nM | 5690 nM | 9390 nM | 4420 nM | 3930 nM | 322 nM | 12900 nM | – | – | 3920 nM | 4120 nM | 4830 nM | 6540 nM | – | – | – | –
3 | CC[C@H](C)[C@H](NC(=O)[C@H](CCC(=O)O)NC(=O)CNC(=O)[C@@H](NC(=O)[C@@H](NC(=O)[C@@H](NC(=O)[C@H](CCC(N)=O)NC(=O)[C@H](Cc1ccccc1)NC(=O)[C@@H](NC(=O)CNC(=O)[C@@H]1CCCN1C(=O)[C@H](CCSC)NC(=O)[C@@H](NC(=O)[C@H](CCC(N)=O)NC(=O)[C@@H](N)Cc1ccccc1)[C@@H](C)O)[C@@H](C)O)[C@@H](C)O)[C@@H](C)O)[C@@H](C)O)C(=O)O [NS3 109-123] | 16400 nM | – | 1020 nM | – | – | 961 nM | 222 nM | 3860 nM | 4140 nM | 2750 nM | 148 nM | 2180 nM | 557 nM | – | 7040 nM | 1850 nM | – | –
4 | CC[C@H](C)[C@H](NC(=O)[C@@H]1CCCN1C(=O)[C@H](CC(C)C)NC(=O)CNC(=O)[C@@H](N)CCCCN)C(=O)N[C@@H](CCCNC(=N)N)C(=O)N[C@@H](Cc1ccc(O)cc1)C(=O)N[C@@H](CCC(N)=O)C(=O)N[C@H](C(=O)N[C@H](C(=O)N[C@@H](C)C(=O)N[C@H](C(=O)N[C@@H](CCCCN)C(=O)N[C@@H](CO)C(=O)N[C@@H](CCC(=O)O)C(=O)O)[C@@H](C)O)[C@@H](C)O)[C@@H](C)O [NS3 237-251] | 1820 nM | 2620 nM | 2990 nM | 928 nM | – | 310 nM | 13 nM | 807 nM | 19000 nM | 13 nM | 110 nM | 638 nM | 36 nM | 5.5 nM | – | – | – | –
5 | CC[C@H](C)[C@H](NC(=O)[C@H](C)NC(=O)[C@H](C)NC(=O)[C@H](C)NC(=O)[C@@H](N)CCC(=O)O)C(=O)N[C@@H](Cc1ccccc1)C(=O)N[C@@H](CCSC)C(=O)N[C@H](C(=O)N[C@@H](C)C(=O)N[C@H](C(=O)N1CCC[C@H]1C(=O)N1CCC[C@H]1C(=O)NCC(=O)N[C@H](C(=O)N[C@@H](C)C(=O)O)[C@@H](C)O)[C@@H](C)O)[C@@H](C)O [NS3 309-323] | – | – | 48 nM | – | 32 nM | 350 nM | 2.4 nM | 93 nM | 11700 nM | 2520 nM | 27 nM | 363 nM | 31 nM | 9.2 nM | 2640 nM | 129 nM | – | –
6 | CC[C@H](C)[C@H](NC(=O)[C@H](Cc1ccc(O)cc1)NC(=O)CNC(=O)[C@H](CC(C)C)NC(=O)[C@H](CCCCN)NC(=O)[C@H](Cc1c[nH]cn1)NC(=O)[C@H](CC(C)C)NC(=O)CNC(=O)[C@H](CCC(=O)O)NC(=O)CNC(=O)[C@H](CCC(=O)O)NC(=O)[C@@H](NC(=O)CNC(=O)[C@H](CO)NC(=O)[C@H](Cc1ccc(O)cc1)NC(=O)[C@H](CO)NC(=O)[C@@H](N)CC(N)=O)C(C)C)C(=O)O [NS5 501-517] | 4420 nM | – | 18 nM | – | 2400 nM | 4370 nM | 74 nM | 8180 nM | 2960 nM | 1120 nM | 7 nM | 3050 nM | 836 nM | – | – | – | 4990 nM | –
7 | CSCC[C@H](NC(=O)[C@H](CCC(N)=O)NC(=O)[C@H](C)NC(=O)[C@H](Cc1ccc(O)cc1)NC(=O)[C@H](C)NC(=O)[C@H](CCCCN)NC(=O)CNC(=O)[C@H](CC(C)C)NC(=O)[C@H](CS)NC(=O)[C@H](C)NC(=O)[C@@H](NC(=O)[C@H](CCC(=O)O)NC(=O)[C@H](CCCNC(=N)N)NC(=O)[C@H](CC(C)C)NC(=O)[C@@H](N)CO)[C@@H](C)O)C(=O)N[C@@H](Cc1c[nH]c2ccccc12)C(=O)N[C@H](C(=O)O)[C@@H](C)O [NS5 747-763] | 5740 nM | – | 2980 nM | – | 39 nM | 111 nM | – | 80 nM | 8310 nM | – | 54 nM | 167 nM | 551 nM | 4660 nM | – | – | – | 393 nM
8 | CC[C@H](C)[C@H](NC(=O)[C@H](C)NC(=O)[C@H](CC(N)=O)NC(=O)[C@H](CO)NC(=O)[C@H](C)NC(=O)[C@H](CC(C)C)NC(=O)[C@H](CCCNC(=N)N)NC(=O)[C@H](CC(C)C)NC(=O)[C@H](CC(=O)O)NC(=O)[C@H](CCCNC(=N)N)NC(=O)[C@H](CCCNC(=N)N)NC(=O)[C@H](Cc1c[nH]cn1)NC(=O)[C@H](Cc1ccccc1)NC(=O)[C@H](Cc1ccc(O)cc1)NC(=O)[C@@H](N)CCSC)C(=O)O [NS5 765-779] | 1280 nM | – | 18 nM | – | 18 nM | 34 nM | 4.7 nM | 17 nM | – | 726 nM | 41 nM | 118 nM | 7.8 nM | – | 4.9 nM | 61 nM | – | –
9 | CC[C@H](C)[C@H](NC(=O)[C@H](C)NC(=O)[C@H](CC(N)=O)NC(=O)[C@H](CO)NC(=O)[C@H](C)NC(=O)[C@H](CC(C)C)NC(=O)[C@H](CCCNC(=N)N)NC(=O)[C@H](CC(C)C)NC(=O)[C@H](CC(=O)O)NC(=O)[C@H](CCCNC(=N)N)NC(=O)[C@@H](N)CCCNC(=N)N)C(=O)N[C@@H](CS)C(=O)N[C@@H](CO)C(=O)N[C@@H](C)C(=O)N[C@H](C(=O)N1CCC[C@H]1C(=O)N[C@H](C(=O)O)C(C)C)C(C)C [NS5 769-785] | 409 nM | – | 121 nM | – | 16 nM | 93 nM | 3.6 nM | 79 nM | – | – | 28 nM | 21 nM | 28 nM | 212 nM | – | – | 4.5 nM | 61 nM
